Legend:
[1] = test system: NOD EAE; experiment: Chronic progressive EAE in NOD mice (MOG35-55); type: in vivo, mouse
Method: EAE. […] EAE was assessed as follows: 0, no signs of disease; 1, loss of tone in the tail; 2, hind limb paresis; 3, hind limb paralysis; 4, tetraplegia; 5, moribund.
To further validate the potential of EphB3 kinase inhibition for the therapeutic modulation of CNS inflammation and neurodegeneration, a study was performed using non-obese diabetic (NOD) mouse model of chronic progressive EAE induced by immunization with MOG35-55, which recapitulated aspects of secondary progressive MS, including the progressive and irreversible accumulation of neurologic disability.

[2] = test system: EAE in C57BL/6 mice; experiment: EAE in C57BL/6 mice (MOG35-55); type: in vivo, mouse
Method: EAE. EAE was induced in 8-10 week old female C57BL/6 or NOD by subcutaneous immunization with 150 μg MOG35-55 (#110582, Genemed Synthesis) emulsified in 200 μL of complete Freund's adjuvant per mouse, followed by administration of 200 ng pertussis toxin (#180, List biological Laboratories) on days 0 and 2 as described. […] EAE was assessed as follows: 0, no signs of disease; 1, loss of tone in the tail; 2, hind limb paresis; 3, hind limb paralysis; 4, tetraplegia; 5, moribund.
Mononuclear cells. Mononuclear cells, including astrocytes, monocytes, and microglia, were isolated from the CNS as described. Briefly, mice were perfused with 1×PBS and the isolated brain and spinal cords were homogenized with a razor blade, digested in 0.66 mg/mL papain (#P4762, Sigma-Aldrich) for 15 minutes at 37° C. and subsequently 15 minutes with 0.66 mg/mL Collagenase D (#11088858001, Roche) and 8 U/mL DNase I (#90083, Thermo Fisher Scientific). Samples where then homogenized and filtered through a 70 µm cell strainer and resuspended in 30% Percoll TM solution (#17-5445-01, GE Healthcare) overlayed by 1×PBS for myelin removal. Isolated mononuclear CNS cells were washed with 1×PBS and stained with fluorochrome-conjugated antibody to FITC anti-CD11b (Cat #11-0112-85, eBioscience), APC anti-CD45 (Cat #17-0451-83, eBioscience), BV421 anti-Ly-6C (Cat #128031, Biolegend), PE anti-mouse CD45R/B220 (Cat #553089, BD Biosciences), PE anti-CD140a (Cat #12-1401-81, eBioscience), PE anti-CD105 (Cat #12-1051-82, eBioscience), PE anti-04 (Cat #FAB1326P, R&D), PE anti-Ly-6G (Cat #127608, BioLegend) and PE anti-mouse TER-119 (Cat #116207, BioLegend). Microglia were sorted as CD11b^+CD45^lo Ly6C1^lo, inflammatory monocytes were considered as CD45^hiCD11b^+Ly6C1^hi. Astrocytes were sorted as CD11b^loCD45^lo Ly6C^loCD105^lo CD140a^lo CD11b^loTer119^loCD19^lo after the exclusion of erythrocytes, lymphocytes, microglia, oligodendrocytes, and monocytes. FACSAria IIU (BD Biosciences) was used for cell sorting.
Analysis of T cells. For T-cell flow cytometry analysis, CNS single-cell suspensions or splenocytes were stimulated with 50 ng/mL phorbol 12-myristate 13-acetate (PMA, #P1585, Sigma-Aldrich), 1 μM ionomycin (#I9657, Sigma-Aldrich), GolgiSTOP and (#554724, BD Biosciences, 1:1500) GolgiPLUG (#555029, BD Biosciences, 1:1500) in RPMI 1640 medium (#11875119, Life Technologies) containing 10% FBS (#10438026, GIBCO), penicillin/streptomycin (#15140122, GIBCO, 1:100) for 4 h at 37° C. in a 5% CO2 incubator. Following stimulation, T cells were stained with antibodies against surface markers, and thereafter fixed and stained with antibody against intracellular target protein with an intracellular antibody labeling kit following its instructions (#00-5523, eBioscience).
RNA-sequencing. Sorted astrocytes or microglia were re-suspended in extraction buffer of Picopure RNA isolation kit (KIT0204, Thermo Fisher) and after 30 min incubation at 42° C. samples were extracted following manufacturer's instructions with on-column DNase I digestion (QIAGEN, #79254). RNA was suspended in 10 μl of nuclease free water and 5 μl were sent for SMARTseq sequencing by the Broad Technology Labs and the Broad Genomics Platform. Processed RNA-Seq data was filtered, removing genes with low read counts. Read counts were normalized using TMM normalization and CPM (counts per million) were calculated to create a matrix of normalized expression values.
H&E, LFB and silver staining. Transverse sections from lumbar spinal cords of EAE mice at the end of the experiment were fixed in 4% paraformaldehyde, pH 7.4, embedded in paraffin and cut at 10-μm thickness. Sections were stained with Hematoxylin and Eosin, Luxol fast blue, or silver nitrate. Images were acquired by using a Zeiss Axioskop2 plus microscope with AxioCam HRC and AxioVision software and analyzed by using ImageJ software. […]

[3] = test system: astrocytes; experiment: Cytotoxicity (LDH release) and apoptosis (caspase-3/7) assay; type: cell-based
Method: Cytotoxicity and apoptosis assay. Compound cytotoxicity was inferred by quantifying Lactate Deshidrogenase (LDH) release to the cells supernatants after 24 h using the CytoTox 96© Non-Radioactive Cytotoxicity Assay, (Promega #G1780) following by manufacturer's protocol. […] Briefly cells were washed with 0.5% BSA, 2 mM EDTAin 1×PBS and incubated with surface antibodies and a live/dead cell marker on ice for 30 minutes. After, cells were washed and following staining for Caspase-3/7 according the manufacturer's instructions (Invitrogen, #C10427).

[4] = 20 mg/kg from the peak of the disease
[5] = daily intraperitoneal injections

O=C(Nc1ccccc1Cl)c1cnc2ccc(C3CCNCC3)cn12 [A38]
NOD EAE clinical scores ([1]; administration during the progressive phase): ameliorated NOD EAE, as indicated by the reduced clinical scores | astrocyte and microglial expression of transcriptional modules associated with CNS inflammation and neurodegeneration ([1]; progressive phase of NOD EAE): suppressed | peripheral T-cell response ([1]; progressive phase of NOD EAE): no changes in the peripheral T-cell response were detected | recruitment of pro-inflammatory monocytes to the CNS ([1]; progressive phase of NOD EAE): decreased recruitment | T-cell response [2, 4]: did not affect T-cell response | astrocyte and microglial expression of transcriptional modules associated with CNS inflammation and neurodegeneration (RNA-seq) [2, 4]: decreased | axonal loss (histopathology) [2, 4]: reduced demyelination, and axonal loss | demyelination (histopathology) [2, 4]: reduced demyelination | recruitment of Ly6C^Hi pro-inflammatory monocytes to the CNS [2, 4]: reduced the recruitment | EAE clinical scores ([2]; 20 mg/kg i.p. twice a day from the peak of the disease): ameliorated EAE, as indicated by the reduction in clinical scores | expression of genes related to ROS metabolic processes in astrocytes isolated from treated EAE mice ([2]; FIG. 5D): a decrease in the expression | therapeutic effects of A38 concomitant with EphB3 knockdown in astrocytes ([2]; compared with either intervention alone): did not further increase the therapeutic effects | T cell counts in the spleen [2, 5]: unchanged | pro-inflammatory monocytes in the CNS [2, 5]: decrease | course of EAE, preventive treatment ([2]; daily intraperitoneal injections from day 3 (priming phase)): did not alter the course of EAE | clinical course of EAE, treatment during the chronic phase ([2]; daily intraperitoneal injections from day 21): ameliorated the clinical course significantly | IFN-γ and IL-17 producing T cells in the CNS ([2]; daily intraperitoneal injections, chronic phase): significant decrease | cytotoxicity (LDH release) ([3]; FIG. 1B): did not induce cytotoxicity | apoptosis (caspase-3/7 activation) ([3]; FIG. 7A): did not induce cytotoxicity or apoptosis
